Experimental data taken from patent US9868692B2, “Compounds and compositions for intracellular delivery of therapeutic agents” (MODERNATX, Inc., priority 2015, dated 2018).
Each block holds one molecule with its values, some of them ahead of it.

Tests used:
[1] = Residual lipid level in liver of rats (UPLC-MS quantification); format: in vivo; conditions: rat; for % Lipid Remaining in liver, 48 h 2 mpk: assuming 300 g rat and 15 g liver; for concentration at 48 h: intravenous
Method: (§1) To pre-weighed tissues, Milli-Q water was added (900 μL water per 100 mg tissue). Tissues were homogenized using an Omni probe homogenizer until uniform. 50 μL of samples and matrix calibration standards were aliquoted into a 96-well plate. 50 μL of blank matrix for matrix blanks and control blanks were aliquoted. 400 μL IS spiking solution were manually added to all samples except matrix blanks. 400 μL of 50:50 ACN:IPA were manually added to matrix blanks. The plate was covered and the samples vortexed and centrifuged for 5 minutes at >3000 rpm. 200 μL of the samples were transferred into a clean 96-well plate for analysis. […] Detection was based on electrospray ionization (ESI) in positive mode using a Sciex API5500 Mass Spectrometer.
(§2) The expression of hEPO in rats intravenously administered a nanoparticle composition at a dose of 0.2 mpk or 2.0 mpk was measured at 6 hours. […] Liver and spleen levels represent the average values calculated for 3 rats in each group.
(§3) The expression of hEPO and lipid levels in the liver and spleen in rats intravenously administered a nanoparticle composition at a dose of 0.2 mpk was measured at various timepoints. […] Lipids were formulated according to the standard MC3 formulation described above.

[2] = Residual lipid level in spleen of rats (UPLC-MS quantification); format: in vivo; conditions: rat
Method: as §1, §2, §3

[3] = Particle size, polydispersity index (and zeta potential) of nanoparticle compositions, Zetasizer Nano ZS; format: physicochemical; conditions: Table 1A formulations
Source text: Nanoparticle compositions may be characterized by a variety of methods. For example, microscopy (e.g., transmission electron microscopy or scanning electron microscopy) may be used to examine the morphology and size distribution of a nanoparticle composition. Dynamic light scattering or potentiometry (e.g., potentiometric titrations) may be used to measure zeta potentials. Dynamic light scattering may also be utilized to determine particle sizes. Instruments such as the Zetasizer Nano ZS (Malvern Instruments Ltd, Malvern, Worcestershire, UK) may also be used to measure multiple characteristics of a nanoparticle composition, such as particle size, polydispersity index, and zeta potential.
A Zetasizer Nano ZS (Malvern Instruments Ltd, Malvern, Worcestershire, UK) can be used to determine the particle size, the polydispersity index (PDI) and the zeta potential of the nanoparticle compositions in 1×PBS in determining particle size and 15 mM PBS in determining zeta potential.

[4] = Encapsulation efficiency of RNA, QUANT-IT RIBOGREEN RNA assay; format: physicochemical; conditions: Table 1A formulations
Source text: The efficiency of encapsulation of a therapeutic and/or prophylactic describes the amount of therapeutic and/or prophylactic that is encapsulated or otherwise associated with a nanoparticle composition after preparation, relative to the initial amount provided. The encapsulation efficiency is desirably high (e.g., close to 100%). The encapsulation efficiency may be measured, for example, by comparing the amount of therapeutic and/or prophylactic in a solution containing the nanoparticle composition before and after breaking up the nanoparticle composition with one or more organic solvents or detergents. Fluorescence may be used to measure the amount of free therapeutic and/or prophylactic (e.g., RNA) in a solution. For the nanoparticle compositions described herein, the encapsulation efficiency of a therapeutic and/or prophylactic may be at least 50%, for example 50%, 55%, 60%, 65%, 70%, 75%, 80%, 85%, 90%, 91%, 92%, 93%, 94%, 95%, 96%, 97%, 98%, 99%, or 100%. In some embodiments, the encapsulation efficiency may be at least 80%. In certain embodiments, the encapsulation efficiency may be at least 90%.
For nanoparticle compositions including an RNA, a QUANT-IT™ RIBOGREEN® RNA assay (Invitrogen Corporation Carlsbad, Calif.) can be used to evaluate the encapsulation of an RNA by the nanoparticle composition. The samples are diluted to a concentration of approximately 5 μg/mL in a TE buffer solution (10 mM Tris-HCl, 1 mM EDTA, pH 7.5). 50 μL of the diluted samples are transferred to a polystyrene 96 well plate and either 50 μL of TE buffer or 50 μL of a 2% Triton X-100 solution is added to the wells. The plate is incubated at a temperature of 37° C. for 15 minutes. The RIBOGREEN® reagent is diluted 1:100 in TE buffer, and 100 μL of this solution is added to each well. The fluorescence intensity can be measured using a fluorescence plate reader (Wallac Victor 1420 Multilablel Counter; Perkin Elmer, Waltham, Mass.) at an excitation wavelength of, for example, about 480 nm and an emission wavelength of, for example, about 520 nm. The fluorescence values of the reagent blank are subtracted from that of each of the samples and the percentage of free RNA is determined by dividing the fluorescence intensity of the intact sample (without addition of Triton X-100) by the fluorescence value of the disrupted sample (caused by the addition of Triton X-100).

[5] = liver, 0.2 mg/kg, 0.2 mpk, 48 h, average of 3 rats, read-out: Liver level
[6] = liver, 2 mg/kg, 2 mpk, 48 h, average of 3 rats, read-out: Liver level
[7] = intravenous, 0.2 mg/kg, 0.2 mpk, 48 h, average of 3 rats, read-out: Spleen level
[8] = intravenous, 2 mg/kg, 2 mpk, 48 h, average of 3 rats, read-out: Spleen level
[9] = liver, iv, 0.2 mg/kg, 0.2 mpk, 48 hours, read-out: Liver level
[10] = liver, iv, 2 mg/kg, 2 mpk, 48 hours, read-out: Liver level
[11] = iv, 0.2 mg/kg, 0.2 mpk, 48 hours, read-out: Spleen level
[12] = iv, 2 mg/kg, 2 mpk, 48 hours, read-out: Spleen level

Compound: CCCCCCCCCN(CCO)CCCCCCCC(=O)OC(CCCCCCCC)CCCCCCCC [Compound 3, Heptadecan-9-yl 8-((2-hydroxyethyl)(nonyl)amino)octanoate]
% Lipid Remaining in liver, 48 h 2 mpk ([1]; 2 mpk, 48 h): 14%

Compound: CCCCCCCCC(CCCCCCCC)OC(=O)CCCCCCCN(CCO)CCCCCCCC(=O)OCC1CC1CCCCCC (centres unmarked) [Compound 28, Heptadecan-9-yl 8-((8-((2-hexylcyclopropyl)methoxy)-8-oxooctyl)(2-hydroxyethyl)amino)octanoate]
concentration at 48 h [1, 5]: 49.6 ng/g | concentration at 48 h [1, 6]: 665 ng/g | concentration at 48 h [2, 7]: 268 ng/g | concentration at 48 h [2, 8]: 551 ng/g

Compound: CCCCCCCCCOC(=O)CCCCCCCN(CCO)CCCCCCCOC(=O)C(CCCCCCCC)CCCCCCCC [Compound 30, 7-((2-Hydroxyethyl)(8-(nonyloxy)-8-oxooctyl)amino)heptyl 2-octyldecanoate]
% Lipid Remaining in liver, 48 h 2 mpk ([1]; 2 mpk, 48 h): <0.01%

Compound: CCCCCCCCC(CCCCCCCC)OC(=O)CCCCCCCN(CCO)CCCC(=O)OCCCCCC [Compound 53, heptadecan-9-yl 8-((4-(hexyloxy)-4-oxobutyl)(2-hydroxyethyl)amino) octanoate]
concentration at 48 h [1, 5]: 4810 ng/g | concentration at 48 h [1, 6]: 47000 ng/g | concentration at 48 h [2, 7]: 1180 ng/g | concentration at 48 h [2, 8]: 201000 ng/g

Compound: CCCC/C=C\CCC(CC/C=C\CCCC)OC(=O)CCCCCCCN(CCO)CCCCCC(=O)OCCCCCCCCCCC [Compound 61, (5Z,12Z)-heptadeca-5,12-dien-9-yl 8-((2-hydroxyethyl)(6-oxo-6-(undecyloxy)hexyl)amino)octanoate]
PDI [3]: 0.11 | EE (%) [4]: 97.2%

Compound: CCCCCCCCCOC(=O)CCCCCCCN(CCCCCCCC(=O)OC(CCCCCCCC)CCCCCCCC)CCCNC(=O)NC [Compound 112, Heptadecan-9-yl 8-((3-(3-methylureido)propyl)(8-(nonyloxy)-8-oxooctyl)amino)octanoate]
PDI [3]: 0.12

Compound: CCCCCCCCCOC(=O)CCCCCCCN(CCO)CCCCCCC(=O)OCC(CCCCCCCC)CCCCCCCC [Compound 143, Nonyl 8-((2-hydroxyethyl)(7-((2-octyldecyl)oxy)-7-oxoheptyl)amino)octanoate]
PDI [3]: 0.19

Compound: CCCCCCCCCOC(=O)CCCCCCCN(CCCCCCCC(=O)OC(CCCCCCCC)CCCCCCCC)CCCN/C(=N/C#N)N(C)C [Compound 168, Heptadecan-9-yl (Z)-8-((3-(2-cyano-3,3-dimethylguanidino)propyl)(8-(nonyloxy)-8-oxooctyl)amino)octanoate]
PDI [3]: 0.1

Compound: CCCCCCCCCOC(=O)CCCCCCCN(CCCCCCCC(=O)OC(CCCCCCCC)CCCCCCCC)CCCOC(=O)NC [Compound 175, Heptadecan-9-yl 8-((3-((methylcarbamoyl)oxy)propyl)(8-(nonyloxy)-8-oxooctyl)amino)octanoate]
PDI [3]: 0.2

More lines, now with the values ahead:

% Lipid Remaining in liver, 48 h 2 mpk ([1]; 2 mpk, 48 h): 0.016%
Compound: CCCCCC/C=C\COC(=O)CCCCCCCN(CCO)CCCCCCCC(=O)OC(CCCCCCCC)CCCCCCCC [Compound 24, Heptadecan-9-yl (Z)-8_((2-hydroxyethyl)(8-(non-2-en-1-yloxy)-8-oxooctyl)amino)octanoate]

concentration at 0.25 h ([1]; liver, iv, 0.2 mg/kg, 0.2 mpk, 0.25 h): 12000 ng/g | concentration at 0.5 h ([1]; liver, iv, 0.2 mg/kg, 0.2 mpk, 0.5 h): 16400 ng/g | concentration at 1 h ([1]; liver, iv, 0.2 mg/kg, 0.2 mpk, 1 h): 17900 ng/g | concentration at 2 h ([1]; liver, iv, 0.2 mg/kg, 0.2 mpk, 2 h): 11700 ng/g | concentration at 4 h ([1]; liver, iv, 0.2 mg/kg, 0.2 mpk, 4 h): 6690 ng/g | concentration at 8 h ([1]; liver, iv, 0.2 mg/kg, 0.2 mpk, 8 h): 2360 ng/g | concentration at 24 h ([1]; liver, iv, 0.2 mg/kg, 0.2 mpk, 24 h): 199 ng/g | concentration at 48 h ([1]; liver, iv, 0.2 mg/kg, 0.2 mpk, 48 h, read-out: Lipid level in liver): 12000 ng/g | concentration at 0.25 h ([2]; iv, 0.2 mg/kg, 0.2 mpk, 0.25 h): 4040 ng/g | concentration at 0.5 h ([2]; iv, 0.2 mg/kg, 0.2 mpk, 0.5 h): 6880 ng/g | concentration at 1 h ([2]; iv, 0.2 mg/kg, 0.2 mpk, 1 h): 8590 ng/g | concentration at 2 h ([2]; iv, 0.2 mg/kg, 0.2 mpk, 2 h): 13700 ng/g | concentration at 4 h ([2]; iv, 0.2 mg/kg, 0.2 mpk, 4 h): 20400 ng/g | concentration at 8 h ([2]; iv, 0.2 mg/kg, 0.2 mpk, 8 h): 10800 ng/g | concentration at 24 h ([2]; iv, 0.2 mg/kg, 0.2 mpk, 24 h): 2020 ng/g | concentration at 48 h ([2]; iv, 0.2 mg/kg, 0.2 mpk, 48 h, read-out: Lipid level in spleen): 1550 ng/g
Compound: CCCCCCCCCCCOC(=O)CCCCCN(CCO)CCCCCCCC(=O)OC(CCCCCCCC)CCCCCCCC [Compound 25, Heptadecan-9-yl 8-((2-hydroxyethyl)(6-oxo-6-(undecyloxy)hexyl)amino)octanoate]

% Lipid Remaining in liver, 48 h 2 mpk ([1]; 2 mpk, 48 h): 20%
Compound: CCCCCCCCCOC(=O)CCCN(CCO)CCCCCCCC(=O)OC(CCCCCCCC)CCCCCCCC [Compound 26, Heptadecan-9-yl 8-((2-hydroxyethyl)(4-(nonyloxy)-4-oxobutyl)amino) octanoate]

concentration at 48 h [1, 6]: 103 ng/g | concentration at 48 h [2, 7]: 115 ng/g | concentration at 48 h [2, 8]: 287 ng/g
Compound: CCCCCCCCCOC(=O)CCCCCCCN(CCO)CCCCCCCC(=O)OC(CCCCC)CCCCCCCC (centres unmarked) [Compound 33, nonyl 8-((2-hydroxyethyl)(8-oxo-8-(tetradecan-6-yloxy)octyl)amino) octanoate]

concentration at 48 h [1, 9]: 5450 ng/g | concentration at 48 h [1, 10]: 34500 ng/g | concentration at 48 h [2, 11]: 0.31 | concentration at 48 h [2, 12]: 0.21
Compound: CCCCCCCCC(C)OC(=O)CCCCCCCN(CCO)CCCCCCCC(=O)OC(CCCCCCCC)CCCCCCCC (centres unmarked) [Compound 48, decan-2-yl 8-((8-(heptadecan-9-yloxy)-8-oxooctyl)(2-hydroxyethyl)amino)octanoate]

concentration at 48 h [1, 9]: 5820 ng/g | concentration at 48 h [1, 10]: 79200 ng/g | concentration at 48 h [2, 11]: 0.22 | concentration at 48 h [2, 12]: 0.17
Compound: CCCCCCCCC(CCC)OC(=O)CCCCCCCN(CCO)CCCCCCCC(=O)OC(CCCCCCCC)CCCCCCCC (centres unmarked) [Compound 50, dodecan-4-yl 8-((8-(heptadecan-9-yloxy)-8-oxooctyl)(2-hydroxyethyl)amino)octanoate]

concentration at 48 h [1, 5]: 6070 ng/g | concentration at 48 h [1, 6]: 56100 ng/g | concentration at 48 h [2, 7]: 6360 ng/g | concentration at 48 h [2, 8]: 49400 ng/g
Compound: CCCCCCCCC(CCCCCCCC)OC(=O)CCCCCCCN(CCO)CCCC(=O)OCCCCCCC [Compound 54, heptadecan-9-yl 8-((4-(heptyloxy)-4-oxobutyl)(2-hydroxyethyl)amino) octanoate]

PDI [3]: 0.11
Compound: CCCCCCCCC(CCCCCCCC)OC(=O)CCCCCCCN(CCO)CCCC(=O)OC(CCCCC)CCCCCCCC (centres unmarked) [Compound 71, Heptadecan-9-yl 8-((2-hydroxyethyl)(4-oxo-4-(tetradecan-6-yloxy)butyl)amino)octanoate]
